ChEMBL document CHEMBL1147847, “Evaluation of electronic, lipophilic and membrane affinity effects on antiproliferative activity of 5-substituted-2-(2,4-dihydroxyphenyl)-1,3,4-thiadiazoles against various human cancer cells” (2007)

Tests used:
Assay type in all cases: functional
[1] = Antiproliferative activity against human HCV29T cells by SRB method
[2] = Antiproliferative activity against human SW707 cells by SRB method
T47D = test: Antiproliferative activity against human T47D cells by SRB method
A549 = test: Antiproliferative activity against human A549 cells by SRB method

SMILES: OCCCc1nnc(-c2ccc(O)cc2O)s1
- log(1/ID50) [1]: -2.232

SMILES: Oc1ccc(-c2nnc(-c3ccccc3)s2)c(O)c1
- log(1/ID50) [1]: -2.276

SMILES: Oc1ccc(-c2nnc(-c3ccc(O)cc3O)s2)c(O)c1
- log(1/ID50) [1]: -2.045

SMILES: Oc1ccc(-c2nnc(-c3ccc(-c4ccccc4)cc3)s2)c(O)c1
- log(1/ID50) [2]: -1.161
- log(1/ID50) (T47D): -1.407
- log(1/ID50) [1]: -1.693
- log(1/ID50) (A549): -1.28

SMILES: Oc1ccc(-c2nnc(Cc3ccccc3)s2)c(O)c1
- log(1/ID50) [1]: -2.09

SMILES: Oc1ccc(-c2nnc(Cc3cccc4ccccc34)s2)c(O)c1
- log(1/ID50) [2]: -1.926
- log(1/ID50) (T47D): -1.629
- log(1/ID50) [1]: -1.923
- log(1/ID50) (A549): -1.865

SMILES: Oc1ccc(-c2nnc(-c3ccncc3)s2)c(O)c1
- log(1/ID50) [1]: <-2.567

SMILES: Oc1ccc(-c2nnc(-c3cc4ccccc4s3)s2)c(O)c1
- log(1/ID50) [1]: -1.848

SMILES: Oc1ccc(-c2nnc(COc3ccccc3Cl)s2)c(O)c1
- log(1/ID50) [2]: -2.037
- log(1/ID50) (T47D): -1.494
- log(1/ID50) [1]: -2.061
- log(1/ID50) (A549): -2.108

SMILES: Oc1ccc(-c2nncs2)c(O)c1
- log(1/ID50) [1]: -2.25

SMILES: CCOc1ccc(-c2nnc(-c3ccc(O)cc3O)s2)cc1
- log(1/ID50) [1]: -2.016

SMILES: Cc1cccc(-c2nnc(-c3ccc(O)cc3O)s2)c1O
- log(1/ID50) [2]: -1.746
- log(1/ID50) (T47D): -1.273
- log(1/ID50) [1]: -1.745
- log(1/ID50) (A549): -1.292

SMILES: CCCCCCCCCCCCCCCc1nnc(-c2ccc(O)cc2O)s1
- log(1/ID50) [1]: <-2.393

SMILES: Oc1ccc(-c2nnc(COc3ccc(F)cc3)s2)c(O)c1
- log(1/ID50) [1]: -1.999

SMILES: Oc1ccc(-c2nnc(COc3ccc(Cl)cc3Cl)s2)c(O)c1
- log(1/ID50) [1]: -2.41

SMILES: O=[N+]([O-])c1ccc(OCc2nnc(-c3ccc(O)cc3O)s2)cc1
- log(1/ID50) [1]: -2.429

SMILES: Oc1ccc(-c2nnc(C(O)c3ccccc3)s2)c(O)c1 (stereo not drawn)
- log(1/ID50) [2]: -2.027
- log(1/ID50) (T47D): -2.148
- log(1/ID50) [1]: -1.857
- log(1/ID50) (A549): -2.139

SMILES: Oc1ccc(-c2nnc(CCCCc3nnc(-c4ccc(O)cc4O)s3)s2)c(O)c1
- log(1/ID50) [2]: -1.025
- log(1/ID50) (T47D): <-2.354
- log(1/ID50) [1]: -1.421
- log(1/ID50) (A549): -1.42

SMILES: Oc1cc(O)cc(-c2nnc(-c3ccc(O)cc3O)s2)c1
- log(1/ID50) [1]: -2.182

SMILES: Oc1ccc(-c2nnc(-c3ccccn3)s2)c(O)c1
- log(1/ID50) [1]: -2.152

SMILES: CC(C)(C)c1ccc(-c2nnc(-c3ccc(O)cc3O)s2)cc1
- log(1/ID50) [2]: -1.139
- log(1/ID50) (T47D): -1.088
- log(1/ID50) [1]: -1.057
- log(1/ID50) (A549): -1.593

SMILES: Oc1ccc(-c2nnc(-c3cccc4ccccc34)s2)c(O)c1
- log(1/ID50) [2]: -1.766
- log(1/ID50) (T47D): -1.18
- log(1/ID50) [1]: -1.871
- log(1/ID50) (A549): -1.828

SMILES: Oc1ccc(-c2nnc(COc3cccc(F)c3)s2)c(O)c1
- log(1/ID50) [1]: -2.093

SMILES: Oc1ccc(-c2nnc(-c3ccccc3Br)s2)c(O)c1
- log(1/ID50) [2]: -1.89
- log(1/ID50) (T47D): -1.444
- log(1/ID50) [1]: -1.919
- log(1/ID50) (A549): -1.912

SMILES: Cc1cc(Cl)ccc1OCc1nnc(-c2ccc(O)cc2O)s1
- log(1/ID50) [2]: -2.117
- log(1/ID50) (T47D): -1.402
- log(1/ID50) [1]: -1.816
- log(1/ID50) (A549): -1.964

SMILES: CCOc1cccc(-c2nnc(-c3ccc(O)cc3O)s2)c1
- log(1/ID50) [1]: -2.04

SMILES: Oc1ccc(-c2nnc(-c3ccccc3O)s2)c(O)c1
- log(1/ID50) [1]: -2.083

SMILES: COc1cccc(COc2nnc(-c3ccc(O)cc3O)s2)c1
- log(1/ID50) [2]: -1.18
- log(1/ID50) (T47D): -0.958
- log(1/ID50) [1]: -0.522
- log(1/ID50) (A549): -1.379

SMILES: Oc1ccc(-c2nnc(-c3ccco3)s2)c(O)c1
- log(1/ID50) [2]: <-2.585
- log(1/ID50) (T47D): -2.196
- log(1/ID50) [1]: -2.178
- log(1/ID50) (A549): <-2.585

SMILES: COc1cc(-c2nnc(-c3ccc(O)cc3O)s2)cc(OC)c1O
- log(1/ID50) [1]: -2.027

SMILES: CCOc1nnc(-c2ccc(O)cc2O)s1
- log(1/ID50) [1]: -2.305

SMILES: COc1nnc(-c2ccc(O)cc2O)s1
- log(1/ID50) [1]: -2.343
